Experimental data: US11873309B2, “Heterocyclic compounds as immunomodulators” (Incyte Corporation, priority 2016, dated 2024)

Biological target: T1, PD-1/PD-L1 protein/protein interaction (recombinant human PD-L1 protein (19-238), recombinant human PD-1 protein (25-167)) (Homo sapiens, UniProt Q9NZQ7)
T1 construct: Recombinant human PD-L1 protein (19-238) with a His-tag at the C-terminus; purchased AcroBiosystems PD1-H5229 (PD-L1); PD1-H5257 (PD-1)
Experiment: PD-1/PD-L1 Homogeneous Time-Resolved Fluorescence (HTRF) Binding Assay
Conditions: 25° C., PBS buffer pH 7.4, 40 minutes preincubation with inhibitors
Experimental: Example A. PD-1/PD-L1 Homogeneous Time-Resolved Fluorescence (HTRF) Binding Assay
The assays were conducted in a standard black 384-well polystyrene plate with a final volume of 20 μL. Inhibitors were first serially diluted in DMSO and then added to the plate wells before the addition of other reaction components. The final concentration of DMSO in the assay was 1%. The assays were carried out at 25° C. in the PBS buffer (pH 7.4) with 0.05% Tween-20 and 0.1% BSA. Recombinant human PD-L1 protein (19-238) with a His-tag at the C-terminus was purchased from AcroBiosystems (PD1-H5229). Recombinant human PD-1 protein (25-167) with Fc tag at the C-terminus was also purchased from AcroBiosystems (PD1-H5257). PD-L1 and PD-1 proteins were diluted in the assay buffer and 10 μL was added to the plate well. Plates were centrifuged and proteins were preincubated with inhibitors for 40 minutes. The incubation was followed by the addition of 10 μL of HTRF detection buffer supplemented with Europium cryptate-labeled anti-human IgG (PerkinElmer-AD0212) specific for Fc and anti-His antibody conjugated to SureLight®-Allophycocyanin (APC, PerkinElmer-AD0059H). After centrifugation, the plate was incubated at 25° C. for 60 min. before reading on a PHERAstar FS plate reader (665 nm/620 nm ratio). Final concentrations in the assay were […], 10 nM PD-L1, 1 nM europium anti-human IgG and 20 nM anti-His-Allophycocyanin. IC50 determination was performed by fitting the curve of percent control activity versus the log of the inhibitor concentration using the GraphPad Prism 5.0 software.

T1 sequence (Q9NZQ7 19-238): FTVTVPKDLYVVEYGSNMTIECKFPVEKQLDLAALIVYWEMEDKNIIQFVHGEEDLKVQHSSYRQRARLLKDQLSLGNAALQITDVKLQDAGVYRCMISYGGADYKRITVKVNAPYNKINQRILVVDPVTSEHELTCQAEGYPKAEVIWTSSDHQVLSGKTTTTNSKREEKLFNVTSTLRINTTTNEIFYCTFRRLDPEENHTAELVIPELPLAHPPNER

IC50 | Compound
≤ 100 nM | Cc1c(NC(=O)c2nc3c(s2)CN(CCO)CC3)cccc1-c1ccccc1 [Example 27, 5-(2-hydroxyethyl)-N-(2-methylbiphenyl-3-yl)-4,5,6,7-tetrahydrothiazolo[5,4-c]pyridine-2-carboxamide]
≤ 100 nM | Cc1c(NC(=O)c2nc3c(s2)CN(CC(=O)O)CC3)cccc1-c1ccccc1 [Example 28, 2-(2-(2-methylbiphenyl-3-ylcarbamoyl)-6,7-dihydrothiazolo[5,4-c]pyridin-5(4H)-yl)acetic acid]
100 to 500 nM | Cc1c(NC(=O)c2nc3c(s2)CNCC3)cccc1-c1ccc2cn(C)nc2c1 [Example 29, N-[2-methyl-3-(2-methyl-2H-indazol-6-yl)phenyl]-4,5,6,7-tetrahydro[1,3]thiazolo[5,4-c]pyridine-2-carboxamide]
100 to 500 nM | Cc1c(NC(=O)c2nc3c(s2)CNCC3)cccc1-c1ccccc1C#N [Example 30, N-(2′-cyano-2-methylbiphenyl-3-yl)-4,5,6,7-tetrahydro[1,3]thiazolo[5,4-c]pyridine-2-carboxamide]
500 to 10000 nM | Cc1c(NC(=O)c2nc3c(s2)CNCC3)cccc1-c1ccccc1CC#N [Example 31, N-[2′-(cyanomethyl)-2-methylbiphenyl-3-yl]-4,5,6,7-tetrahydro[1,3]thiazolo[5,4-c]pyridine-2-carboxamide]
≤ 100 nM | COc1cccc(-c2cccc(NC(=O)c3nc4c(s3)CNCC4)c2Cl)c1F [Example 32, N-(2-chloro-2′-fluoro-3′-methoxybiphenyl-3-yl)-4,5,6,7-tetrahydro[1,3]thiazolo[5,4-c]pyridine-2-carboxamide]
≤ 100 nM | O=C(Nc1cccc(-c2ccccc2)c1Cl)c1nc2c(s1)CNCC2 [Example 33, N-(2-chlorobiphenyl-3-yl)-4,5,6,7-tetrahydro[1,3]thiazolo[5,4-c]pyridine-2-carboxamide]
≤ 100 nM | O=C(Nc1cccc(-c2ccc3c(c2)OCCO3)c1Cl)c1nc2c(s1)CNCC2 [Example 34, N-[2-chloro-3-(2,3-dihydro-1,4-benzodioxin-6-yl)phenyl]-4,5,6,7-tetrahydro[1,3]thiazolo[5,4-c]pyridine-2-carboxamide]
≤ 100 nM | Cn1ncc2c(-c3cccc(NC(=O)c4nc5c(s4)CNCC5)c3Cl)cccc21 [Example 35, N-(2-chloro-3-(1-methyl-1H-indazol-4-yl)phenyl)-4,5,6,7-tetrahydrothiazolo[5,4-c]pyridine-2-carboxamide]
≤ 100 nM | Cc1c(NC(=O)c2nc3c(s2)CNCC3)cc(F)cc1-c1ccc2c(c1)OCCO2 [Example 36, N-[3-(2,3-dihydro-1,4-benzodioxin-6-yl)-5-fluoro-2-methylphenyl]-4,5,6,7-tetrahydro[1,3]thiazolo[5,4-c]pyridine-2-carboxamide]
500 to 10000 nM | Cc1c(NC(=O)c2nc3c(s2)CNCC3)ccnc1-c1ccc2c(c1)OCCO2 [Example 37, N-[2-(2,3-dihydro-1,4-benzodioxin-6-yl)-3-methylpyridin-4-yl]-4,5,6,7-tetrahydro[1,3]thiazolo[5,4-c]pyridine-2-carboxamide]
500 to 10000 nM | Cc1c(NC(=O)c2nc3c(s2)CNCC3)cncc1-c1ccc2c(c1)OCCO2 [Example 38, N-[5-(2,3-dihydro-1,4-benzodioxin-6-yl)-4-methylpyridin-3-yl]-4,5,6,7-tetrahydro[1,3]thiazolo[5,4-c]pyridine-2-carboxamide]
≤ 100 nM | COc1cccc(-c2cccc(NC(=O)c3nc4c(n3C)CCNC4)c2C#N)c1F [Example 39, N-(2-cyano-2′-fluoro-3′-methoxybiphenyl-3-yl)-1-methyl-4,5,6,7-tetrahydro-1H-imidazo[4,5-c]pyridine-2-carboxamide]
≤ 100 nM | COc1cccc(-c2cccc(NC(=O)c3nc4c(n3C)CCN(CCO)C4)c2C#N)c1F [Example 40, N-(2-cyano-2′-fluoro-3′-methoxybiphenyl-3-yl)-5-(2-hydroxyethyl)-1-methyl-4,5,6,7-tetrahydro-1H-imidazo[4,5-c]pyridine-2-carboxamide]
100 to 500 nM | COc1cccc(-c2cccc(NC(=O)c3nc4c(n3C)CCN(CC(=O)O)C4)c2C#N)c1F [Example 41, (2-{[(2-cyano-2′-fluoro-3′-methoxybiphenyl-3-yl)amino]carbonyl}-1-methyl-1,4,6,7-tetrahydro-5H-imidazo[4,5-c]pyridin-5-yl)acetic acid]
100 to 500 nM | Cn1c(C(=O)Nc2cccc(-c3cccc4c3cnn4C)c2C#N)nc2c1CCNC2 [Example 42, N-(2-cyano-3-(1-methyl-1H-indazol-4-yl)phenyl)-1-methyl-4,5,6,7-tetrahydro-1H-imidazo[4,5-c]pyridine-2-carboxamide]
